Reference: patent publication US20260345547A1, “USE OF DIHYDROQUERCETIN IN TREATING OCULAR SURFACE DISEASES” (HE UNIVERSITY SCHOOL OF CLINICAL MEDICINE, priority 2022, published 2026)
Several values for one entry are separate records, joined by “and”; a condition that tells them apart may be missing. Identical values can stand only once.

What was measured:
[1] = test system: HCE cells (H2O2-induced oxidative damage); experiment: MTS assay: anti-oxidative damage effect on HCE cells with H2O2-induced damage; assay type: cell-based, human
Description: (§1) Human corneal epithelial cells were purchased from the American Type Culture Collection (ATCC). The cell medium used was high-sugar DMEM medium supplemented with 10% (V/V) fetal bovine serum, 100 U/mL penicillin, and 100 μg/mL gentamicin. The cells were cultured in an incubator containing 5% carbon dioxide at 37° C. Cells in the logarithmic growth phase were seeded into a 96-well plate at a density of 1.5×10^5 cells/mL, with 100 μL per well and 6 replicate wells per group. The cells were grouped into a normal cell group, a hydrogen peroxide model group, and intervention groups treated with dihydroquercetin at various concentrations. The assay was performed using an MTS kit (e.g., Promega), and absorbance was measured at 490 nm using a microplate reader.
(§2) Survival rate=survival rate of each group/survival rate of normal cell group×100%
Human corneal epithelial cells were purchased from the American Type Culture Collection (ATCC). The cell medium used was high-sugar DMEM medium supplemented with 10% (V/V) fetal bovine serum, 100 U/mL penicillin, and 100 μg/mL gentamicin. The cells were cultured in an incubator containing 5% carbon dioxide at 37° C. Cells in the logarithmic growth phase were seeded into a 96-well plate at a density of 1.5×10^5 cells/mL, with 100 μL per well and 6 replicate wells per group. After 24 h, the cells were treated with H2O2 or dihydroquercetin according to the experimental purpose. […] To measure the colorimetric results, the absorbance value of each well was read at the wavelength of 490 nm using an enzyme-linked immunosorbent assay reader. The results were recorded, and a cell growth curve was plotted with time as the abscissa and absorbance value as the ordinate.
The experiment included 8 groups: a normal control group, a H2O2 model group, and intervention groups treated with various concentrations of dihydroquercetin (0.1-200 μM)+H2O2. […] The survival rate of cells in each group was assessed by the MTS assay to evaluate the protective effect of dihydroquercetin against oxidative damage of HCE cells.

mouse model of dry eye [2] = experiment: Tear secretion amount (phenol red cotton thread) in dry eye mice; assay type: in vivo, C57/BL6 mice; conditions: 5 μL drops twice daily, ocular, day 14 of modeling, compared to model control group, P<0.001
Description: (§3) Out of 50 healthy 8-week-old female C57/BL6 mice, 30 were selected for the experiment. Five mice were randomly assigned to each group, resulting in a total of six groups: blank control group (N), model group (M), positive drug group (CsA), low concentration traditional Chinese medicine group (SL), medium concentration traditional Chinese medicine group (SM), and high concentration traditional Chinese medicine group (SH). During grouping, identification was marked on the mice's tails and cage cards, which included details such as the experiment name, experiment number, group designation, administration dosage, and administration schedule.
(§4) In this experiment, a mouse model of dry eye was established using an intelligent dry environment control system in combination with scopolamine injection. A two-step dehumidification method was used to control the humidity of the environment during the modeling process. Initially, a temperature-adjustable industrial dehumidifier was used to reduce the room humidity to 40%±5%. […]
The mice were restrained without anesthesia. […] The thread was then placed on a printable ruler, and the length of the red-stained portion was measured and recorded. The data were analyzed statistically using GraphPad Prism 8.0 software. […]

mouse model of dry eye [3] = experiment: Sodium fluorescein staining of cornea (corneal epithelial damage) in dry eye mice; assay type: in vivo, C57/BL6 mice; conditions: day 14 of modeling
Description: as §3
In this experiment, a mouse model of dry eye was established using an intelligent dry environment control system in combination with scopolamine injection. A two-step dehumidification method was used to control the humidity of the environment during the modeling process. […]
The corneal morphology of experimental mice in each group was observed before modeling and 14 days after modeling. […] The sodium fluorescein-stained corneas of the mice were then illuminated with cobalt blue light, observed, imaged and recorded with a slit lamp. […] Sodium fluorescein residues on the corneal surface was scored and recorded. The data were analyzed statistically using GraphPad Prism 8.0 software.

HCE cells = experiment: MTS assay: proliferative and toxic effects of dihydroquercetin on HCE cells; assay type: cell-based, human; conditions: 24 h; for cell viability of HCE cells: compared to control group
Description: as §1, §2
Human corneal epithelial cells were purchased from the American Type Culture Collection (ATCC). The cell medium used was high-sugar DMEM medium supplemented with 10% (V/V) fetal bovine serum, 100 U/mL penicillin, and 100 μg/mL gentamicin. The cells were cultured in an incubator containing 5% carbon dioxide at 37° C. Cells in the logarithmic growth phase were seeded into a 96-well plate at a density of 1.5×10^5 cells/mL, with 100 μL per well and 6 replicate wells per group. After 24 h, the cells were treated with H2O2 or dihydroquercetin according to the experimental purpose. For color development, 20 μL of MTS solution was added to each well, and the cells were incubated for another 2-4 h. To measure the colorimetric results, the absorbance value of each well was read at the wavelength of 490 nm using an enzyme-linked immunosorbent assay reader. The results were recorded, and a cell growth curve was plotted with time as the abscissa and absorbance value as the ordinate.
Various concentrations of dihydroquercetin (0.01-600 μM) were applied to HCE cells, and 6 replicate wells were set for each group to ensure the reliability and accuracy of the experimental data. The proliferative effect of the drug on the cells was then assessed.

mouse model of dry eye [4] = experiment: Tear film breakup time in dry eye mice; assay type: in vivo, C57/BL6 mice; conditions: treatment groups (0.03% and 0.3%), ocular; day 14 of modeling; compared to model control group, P<0.05
Description: as §3, §4
The mice were restrained without anesthesia, and sodium fluorescein solution was instilled into their conjunctival sacs. […] The time until the appearance of a block spot due to tear film breakup was recorded. […] The data were analyzed statistically using GraphPad Prism 8.0 software. […]

[5] = test system: corneal neovascularization model in rabbits; experiment: Corneal neovascularization after corneal alkali burn in rabbits; assay type: in vivo, New Zealand rabbits; conditions: 50 μL twice daily, ocular, 14 days after treatment, compared to model group; for corneal neovascularization area: P<0.01
Description: […] 3-month-old healthy New Zealand rabbits, half male and half female, were randomly assigned to six groups, with each group containing six rabbits. The groups were designated as blank control group (N), model control group (M), positive drug group (LEV), low concentration dihydroquercetin group (E1), high concentration dihydroquercetin group (E2) and solvent control group (R). Identification was marked on the rabbits' ears and cage cards, which included details such as the experiment name, experiment number, group designation, administration dosage, and administration schedule.
In this experiment, the corneal neovascularization model in rabbits was established using a chemical injury method. The rabbits were generally anesthetized with an intravenous injection of 1% pentobarbital sodium administered via the marginal ear vein. […] A 6 mm diameter filter paper was soaked in a 1 mol/L NaOH solution for 1 minute. The soaked filter paper was then applied to the center of the cornea for 30 seconds, after which it was removed. The ocular surface and conjunctival sac were subsequently rinsed with physiological saline for 1 minute. Following the modeling procedure, levofloxacin was applied as eye drops to the modeled eye to prevent postoperative infection.
The route of administration was ocular, and treatment commenced the day before modeling. No drug was administered to the blank control group or model control group. In the positive drug group, 50 μL of levofloxacin was applied to the conjunctival sac. In the low concentration group, 50 μL of a 0.03% dihydroquercetin solution was applied, while in the high concentration group, 50 μL of a 0.3% dihydroquercetin solution was applied. All treatments were administered twice daily at 9:00 a.m. and 3:00 p.m.
Fourteen days after treatment, ocular surface inflammation and neovascularization were assessed in each experimental group. The area of neovascularization was imaged, recorded, and subsequently quantified. Data were analyzed statistically using GraphPad Prism 8.0 software.

[6] = test system: human corneal epithelial (HCE) cells; experiment: MTS assay: survival rate of HCE cells treated with H2O2 (damage model); assay type: cell-based; conditions: 300 μM H2O2, 24 h, relative to normal cell group
Description: as §1, with “reader. […]” for “reader.”
Human corneal epithelial cells were purchased from the American Type Culture Collection (ATCC). […] To measure the colorimetric results, the absorbance value of each well was read at the wavelength of 490 nm using an enzyme-linked immunosorbent assay reader. The results were recorded, and a cell growth curve was plotted with time as the abscissa and absorbance value as the ordinate.
HCE cells were subcultured and seeded at 1.5×10^5 cells/mL, with 100 μL per well. […] To measure the colorimetric results, the absorbance value of each well was read at the wavelength of 490 nm using an enzyme-linked immunosorbent assay reader. […]

`O=C1c2c(O)cc(O)cc2O[C@H](c2ccc(O)c(O)c2)[C@H]1O` [dihydroquercetin] was tested, and the “concentration offering protection against H2O2-induced oxidative stress damage in HCE cells” value ([1]; 300 μM H2O2, MTS assay) was 25 to 200 µM, the “cell survival rate, dihydroquercetin + H2O2” value ([1]; 25-200 μM with 300 μM H2O2, compared to H2O2 model group, P<0.01) was “higher” and the tear secretion (mouse model of dry eye [2]; high concentration group (E2), 0.3%) was “significantly increased”. The tear secretion (mouse model of dry eye [2]; low concentration group (E1), 0.03%) was “significantly increased”, the “sodium fluorescein staining of cornea (morphology)” value (mouse model of dry eye [3]; compared to model control group) was “significant reduction in staining” and the “corneal epithelial damage score, sodium fluorescein staining” value (mouse model of dry eye [3]; treatment groups (0.03% and 0.3%), ocular, compared to model group, P<0.001) was “significant reduction in damage”. For the same molecule, the “cell viability of HCE cells” value (HCE cells; 50 μM) was “significantly higher”, the “cell viability of HCE cells” value (HCE cells; 100 μM) was “significantly higher” and the “cell viability of HCE cells” value (HCE cells; 200 μM) was “significantly higher”. For the same molecule, the “cell viability of HCE cells” value (HCE cells; 600 μM) was “significantly reduced”, the “concentration that has a proliferation effect on HCE cells” value (HCE cells; MTS assay) was 25 to 200 µM and 50 to 200 µM and the “concentration with toxic effect on HCE cells” value (HCE cells; MTS assay) was 600 µM. For the same molecule, the “tear film breakup time” value (mouse model of dry eye [4]) was “increased significantly”, the “new blood vessels (slit lamp morphology)” value ([5]; high concentration, 0.3%) was “fewer new blood vessels” and the corneal neovascularization area ([5]; high concentration, 0.3%) was “smaller”. For the same molecule, the “new blood vessels (slit lamp morphology)” value ([5]; low concentration, 0.03%) was “fewer new blood vessels” and the corneal neovascularization area ([5]; low concentration, 0.03%) was “smaller”.
In the case of `C[C@H]1COc2c(N3CCN(C)CC3)c(F)cc3c(=O)c(C(=O)O)cn1c23` [levofloxacin, reference compound], the “new blood vessels (slit lamp morphology)” value [5] was “fewer new blood vessels” and the corneal neovascularization area [5] was “smaller”.
With `OO` [H2O2, hydrogen peroxide, reference compound] the “cell survival rate, H2O2 model group” value ([1]; 300 μM H2O2, compared to control group, P<0.001) was “lower” and the viability at 300 µM [6] was 49%.
